Laboratory results reported in US20230364029A1, “POLYMORPHIC FORMS OF (R)-2-HYDROXY-2-METHYL-4-(2,4,5-TRIMETHYL-3,6-DIOXOCYCLOHEXA-1,4-DIENYL)BUTANAMIDE” (PTC THERAPEUTICS, INC., priority 2014, published 2023).
In brackets after ≈: the same amount, converted by molar mass.

Columns and labels:
Assay type in all cases: physicochemical
[1] = Moisture sorption analysis; conditions: for XRPD following moisture sorption analysis: after 0-95% RH cycles at 25° C.; for Hygroscopicity: moisture sorption, 0-95% RH cycles; for Hygroscopicity / Water adsorbed / Hysteresis upon desorption: 25° C.; for Water adsorbed: at 95 %RH; for Hysteresis upon desorption: moisture sorption-desorption
Method: (§1) Moisture sorption analysis of the starting material was performed by equilibrating the sample at 25° C. and 50% RH to simulate ambient lab conditions. Humidity then decreased to 0% RH, increased from 0 to 95% RH, reduced from 95 to 0% RH, increased from 0 to 95 %RH and then decreased from 95 to 50% RH. Each point represents the estimated asymptotic weight for each humidity or weight. […] No hysteresis was observed upon desorption (FIG. 14).
as §1, with “of Pattern E (from” for “of”, “300 mg scale lot)” for “starting material”, “Humidity was” for “Humidity”, “19).” for “14).”
Moisture sorption analysis of Pattern C (300 mg lot) was performed by equilibrating the sample at 25° C. and 50% RH to simulate ambient lab conditions. Humidity was then decreased to 0% RH, increased from 0 to 95% RH, reduced from 95 to 0% RH, increased from 0 to 95%RH and then decreased from 95 to 50% RH. Each point represents the estimated asymptotic weight for each humidity or weight. […] This increased the total water to about 6% which is the water content of mono-hydrate. However, upon reducing the relative humidity, the solid lost its water. Therefore this could be a channel hydrate. No hysteresis was observed upon desorption (FIG. 24).
as §1, with “Pattern B (300 mg lot)” for “the starting material”, “The major weight loss at the beginning” for “No hysteresis”, “due to loss of solvent.” for “observed upon desorption (FIG. 14).”
as §1, with “Pattern F (from Example 6)” for “the starting material”, “Humidity was” for “Humidity”, “The major weight loss at the beginning is due to loss of solvent.” for “No hysteresis was observed upon desorption (FIG. 14).”

[2] = 7 day elevated aqueous humidity studies; conditions: for Visual Observations 1 day / Visual Observations 7 day / XRPD [Pattern] 7 day: > 95 %RH at Ambient; for XRPD [Pattern] 7 day: form after 7 days; for Stability to elevated humidity: Example 8, summary statement
Method: 7 day elevated aqueous humidity experiments were performed on all Patterns A, B, C, D, E and F at ambient conditions at > 95%RH (Table 17). Approximately 30 mg of each pattern was weighed into a 4 ml glass vial. The uncovered 4 ml vial was inserted into a 20 ml scintillation vial half filled with water and capped. Following 24 hours of equilibration, visual inspection was performed to check for changes in physical appearance, however no change was observed.

[3] = Aqueous solubility (HPLC); conditions: water, ambient conditions, 24 hours of equilibration
Method: Aqueous solubility of Patterns A, B, C, E and F was performed using an Agilent HPLC system. Approximately 10-20 mg of each form was charged to a 2 mL glass vial loaded with a magnetic stir bar and added 2 mL of water. The samples were allowed to stir overnight at ambient conditions. Following 24 hours of equilibration the samples were centrifuged and decanted into HPLC vials. A calibration curve was generated based on Pattern A in MeOH at 0.05, 0.1, 0.5 and 1.0 mg/mL. Following injection of the standard curve, the samples were run as is.

| Structure (SMILES) | XRPD following moisture sorption analysis [1] | Hygroscopicity [1] | Hygroscopicity ([1]; listed as Form IV) | Visual Observations 1 day [2] | Visual Observations 7 day [2] | XRPD [Pattern] 7 day [2] | XRPD [Pattern] 7 day ([2]; listed as B) | Solubility (aqueous) [3] [mg/mL] | Total water after adsorption ([1]; at 95%RH) | Water adsorbed [1] [%] | Hysteresis upon desorption [1] | XRPD [Pattern] 7 day ([2]; listed as C) | Stability to elevated humidity [2] | XRPD [Pattern] 7 day ([2]; listed as D) | Hygroscopicity ([1]; listed as Form II) | XRPD [Pattern] 7 day ([2]; listed as E) | Hygroscopicity ([1]; listed as Form VI) | XRPD [Pattern] 7 day ([2]; listed as F) |
| --- | --- | --- | --- | --- | --- | --- | --- | --- | --- | --- | --- | --- | --- | --- | --- | --- | --- | --- |
| CC1=C(C)C(=O)C(CC[C@@](C)(O)C(N)=O)=C(C)C1=O [Pattern B, (R)-2-hydroxy-2-methyl-4-(2,4,5-trimethyl-3,6-dioxocyclohexa-1,4-dienyl)butanamide] | consistent with Pattern A | non-hygroscopic | non-hygroscopic | Yellow solids | Yellow solids | mixture of Patterns A/B | Crystalline [Mixture of Patterns A/B] | 1.30 (≈ 4.9 mM) |  |  |  |  |  |  |  |  |  |  |
| CC1=C(C)C(=O)C(CC[C@@](C)(O)C(N)=O)=C(C)C1=O [Pattern C, (R)-2-hydroxy-2-methyl-4-(2,4,5-trimethyl-3,6-dioxocyclohexa-1,4-dienyl)butanamide] | consistent with Pattern C | slightly hygroscopic |  | Yellow solids | Yellow solids | no change in form |  | 1.32 (≈ 4.98 mM) | about 6% | 2 | No hysteresis | Crystalline [Pattern C] | stability to elevated humidity |  |  |  |  |  |
| CC1=C(C)C(=O)C(CC[C@@](C)(O)C(N)=O)=C(C)C1=O [Pattern D, (R)-2-hydroxy-2-methyl-4-(2,4,5-trimethyl-3,6-dioxocyclohexa-1,4-dienyl)butanamide] |  |  |  | Yellow solids | Yellow solids | mixture of Patterns D/B |  |  |  |  |  |  |  | Crystalline [Mixture of Patterns D/B] |  |  |  |  |
| CC1=C(C)C(=O)C(CC[C@@](C)(O)C(N)=O)=C(C)C1=O [Pattern E, (R)-2-hydroxy-2-methyl-4-(2,4,5-trimethyl-3,6-dioxocyclohexa-1,4-dienyl)butanamide] | consistent with Pattern E | non-hygroscopic |  | Yellow solids | Yellow solids | no change in form |  | 1.32 (≈ 4.98 mM) |  | 0.2 | No hysteresis |  | stability to elevated humidity |  | non-hygroscopic | Crystalline [Pattern E] |  |  |
| CC1=C(C)C(=O)C(CC[C@@](C)(O)C(N)=O)=C(C)C1=O [Pattern F, (R)-2-hydroxy-2-methyl-4-(2,4,5-trimethyl-3,6-dioxocyclohexa-1,4-dienyl)butanamide] | consistent with Pattern E | non-hygroscopic |  | Yellow solids | Yellow solids | converted to Pattern E |  | 1.36 (≈ 5.13 mM) |  |  |  |  |  |  |  |  | non-hygroscopic | Crystalline [Pattern E] |
